The source of these data is patent US20250332139A1, “PS[…] AND THEIR USE FOR TREATING […] AND NE[…] DISORDERS” (Transcend Therapeutics, Inc., priority 2021, published 2025).

The term Ki denotes the equilibrium dissociation constant of an inhibitor or competing ligand from its target. Read a low Ki as higher affinity.

Test [1] deals with T1, dopamine transporter (DAT) (Rattus norvegicus, UniProt P23977).
T1 construct: from tissue; synaptosomes for uptake and release
Briefly: Competitive radioligand binding, [3H]WIN35428, rat brain lysates. On the procedure: (§1) Radioligands used were: [^3H] Citalopram (PerkinElmer NET1039250UC); [^3H] Nisoxetine (PerkinElmer NET1084250UC); [^3H] WIN35428 (PerkinElmer NET1033250UC). […] Rat brains were dissected and tissue was homogenized in cold lysis buffer, centrifged at 100×g for 2 min and the supernatant was placed in a fresh tube. Supernatant was centrifuged at 13,000×g for 10 min at 4° C. to re-pellet the cell lysate. The pellet was resuspended in fresh wash buffer (50 mM Tris-HCl; 5 mM MgCl2; 5 mM EDTA) and centrifuged a third time. The pellet was then resuspended in wash buffer containing 10% sucrose as a cryoprotectant, divided into aliquots (0.3 mL) and stored at −80° C. A sample of the homogenate was analyzed for protein content using the SIGMA® BCA assay. On the day of the assay, the membrane preparation was thawed, and the pellet resuspended in final assay buffer. […] To each well was added 150 μL membranes, 50 μL of non-specific compound or buffer and 50 μL radioligand solution in buffer. […] Ki was subsequently calculated using the Cheng-Prusoff equation.

Test [2] addresses T2, serotonin transporter (SERT) (Rattus norvegicus, UniProt P31652).
T2 construct: from tissue; synaptosomes for uptake and release
As to the kind of experiment: Competitive radioligand binding, [3H]citalopram, rat brain lysates. The protocol:
as §1

Test [3] deals with myelin basic protein (MBP) in the amygdala. Briefly: Immunohistochemistry of myelin basic protein. The following applies: 10 mg/kg IP, single dose, 24 h. The test is classed as in vivo, rat. The protocol:
Immunohistochemistry: The in-life portion of the study was conducted at WuXi Apptec (Cranbury, NJ). Sectioning and staining of brains took place at Neuroscience Associates (NSA, Knoxville, TN). […] Brains were post-fixed in PFA before shipment to NSA for processing and staining. Hemisected brains were mounted, sectioned and stained using standard protocols with myelin-basic protein primary antibody (MBP SMI-99, 1:5000, Biolegend, San Diego, CA) and anti-mouse biotinylated secondary antibody (BA-2001, Vector Laboratories, Newark, CA). Slides were imaged using a Huron Digital Pathology TissueScope LE120 whole slide scanning system. 20× objective was used with a 0.4 μm/pixel resolution.

In test [4] the target is T3, Human serotonin 5HT2B receptor (Homo sapiens, UniProt P41595).
T3 construct: host or cells: receptor-expressing membranes
T3 sequence (P41595 whole entry): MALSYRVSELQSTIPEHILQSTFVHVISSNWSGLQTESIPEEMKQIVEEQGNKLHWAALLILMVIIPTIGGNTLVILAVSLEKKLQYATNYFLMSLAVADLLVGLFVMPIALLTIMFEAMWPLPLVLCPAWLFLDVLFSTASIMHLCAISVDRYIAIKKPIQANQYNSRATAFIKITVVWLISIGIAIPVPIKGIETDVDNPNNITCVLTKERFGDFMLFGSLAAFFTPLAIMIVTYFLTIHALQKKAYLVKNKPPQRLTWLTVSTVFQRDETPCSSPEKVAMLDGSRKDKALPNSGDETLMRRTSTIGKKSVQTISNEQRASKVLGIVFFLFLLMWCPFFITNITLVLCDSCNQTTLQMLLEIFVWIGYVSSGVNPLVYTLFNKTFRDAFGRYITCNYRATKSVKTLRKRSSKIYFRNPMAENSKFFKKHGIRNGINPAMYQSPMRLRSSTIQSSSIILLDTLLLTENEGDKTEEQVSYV
Briefly: 5HT2B competitive radioligand binding. The following applies: ratio of Ki values. On the procedure: Human serotonin 5HT2B receptor membrane preparations were divided into aliquots. On the day of the assay, membranes were diluted at 1:200 in incubation buffer. […] To each well was added 150 μL membrane preparation, 50 μL test compound, non-specific compound, or buffer alone, as well as 50 μL radioligand. The plate was incubated at 35° C. for 90 minutes with gentle agitation. […] For each concentration of drug, non-specific binding was subtracted from total binding to give specific binding. […] Ki was subsequently calculated using the ChengPrusoff equation.

The target in test [5] is norepinephrine transporter (NET) (Rattus norvegicus, UniProt Q63380). As to the kind of experiment: Competitive radioligand binding, [3H]nisoxetine, rat brain lysates. On the procedure: as §1
Chain of norepinephrine transporter (NET) (Q63380 1-617): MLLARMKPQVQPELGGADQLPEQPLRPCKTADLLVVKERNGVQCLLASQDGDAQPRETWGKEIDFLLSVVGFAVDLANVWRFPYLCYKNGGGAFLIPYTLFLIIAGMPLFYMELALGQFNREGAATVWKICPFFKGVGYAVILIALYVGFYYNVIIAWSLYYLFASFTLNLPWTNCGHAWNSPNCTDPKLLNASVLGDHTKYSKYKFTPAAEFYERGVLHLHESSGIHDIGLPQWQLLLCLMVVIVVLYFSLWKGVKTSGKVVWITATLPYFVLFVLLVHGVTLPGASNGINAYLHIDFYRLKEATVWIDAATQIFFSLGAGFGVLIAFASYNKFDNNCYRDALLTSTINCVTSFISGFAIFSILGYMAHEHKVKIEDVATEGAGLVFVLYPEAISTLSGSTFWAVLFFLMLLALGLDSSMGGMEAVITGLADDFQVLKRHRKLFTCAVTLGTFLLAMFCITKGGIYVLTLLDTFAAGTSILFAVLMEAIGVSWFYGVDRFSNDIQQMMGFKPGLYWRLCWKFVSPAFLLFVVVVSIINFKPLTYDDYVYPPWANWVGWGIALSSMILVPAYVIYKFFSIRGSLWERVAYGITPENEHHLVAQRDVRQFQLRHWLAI
The subject of test [6] is Sprague Dawley rats. The following applies: cited from earlier work.
In test [7] the test system is C57BL/6J mice. The conditions noted are these: MDMA 7.5 mg/kg 30 minutes prior to extinction training (Young 2015); cited from earlier work.

Where two headings read alike, the source gives them in different places.

T2 sequence (P31652 whole entry): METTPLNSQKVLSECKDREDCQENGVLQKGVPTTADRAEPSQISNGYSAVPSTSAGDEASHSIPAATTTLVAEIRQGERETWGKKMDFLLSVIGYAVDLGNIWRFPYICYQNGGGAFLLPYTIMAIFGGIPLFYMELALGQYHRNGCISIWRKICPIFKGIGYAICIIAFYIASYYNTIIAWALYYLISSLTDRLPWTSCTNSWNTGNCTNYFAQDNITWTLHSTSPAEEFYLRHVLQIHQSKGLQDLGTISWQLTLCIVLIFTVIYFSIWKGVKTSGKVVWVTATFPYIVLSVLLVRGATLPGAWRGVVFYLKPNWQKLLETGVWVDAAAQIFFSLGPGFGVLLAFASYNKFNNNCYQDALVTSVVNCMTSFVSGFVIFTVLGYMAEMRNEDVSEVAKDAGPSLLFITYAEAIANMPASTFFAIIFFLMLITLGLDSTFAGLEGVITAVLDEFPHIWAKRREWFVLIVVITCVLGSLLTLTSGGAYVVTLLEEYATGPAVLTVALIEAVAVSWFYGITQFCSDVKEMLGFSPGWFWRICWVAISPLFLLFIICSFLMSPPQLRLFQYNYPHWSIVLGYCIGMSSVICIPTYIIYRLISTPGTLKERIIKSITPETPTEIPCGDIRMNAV
T1 sequence (P23977 whole entry): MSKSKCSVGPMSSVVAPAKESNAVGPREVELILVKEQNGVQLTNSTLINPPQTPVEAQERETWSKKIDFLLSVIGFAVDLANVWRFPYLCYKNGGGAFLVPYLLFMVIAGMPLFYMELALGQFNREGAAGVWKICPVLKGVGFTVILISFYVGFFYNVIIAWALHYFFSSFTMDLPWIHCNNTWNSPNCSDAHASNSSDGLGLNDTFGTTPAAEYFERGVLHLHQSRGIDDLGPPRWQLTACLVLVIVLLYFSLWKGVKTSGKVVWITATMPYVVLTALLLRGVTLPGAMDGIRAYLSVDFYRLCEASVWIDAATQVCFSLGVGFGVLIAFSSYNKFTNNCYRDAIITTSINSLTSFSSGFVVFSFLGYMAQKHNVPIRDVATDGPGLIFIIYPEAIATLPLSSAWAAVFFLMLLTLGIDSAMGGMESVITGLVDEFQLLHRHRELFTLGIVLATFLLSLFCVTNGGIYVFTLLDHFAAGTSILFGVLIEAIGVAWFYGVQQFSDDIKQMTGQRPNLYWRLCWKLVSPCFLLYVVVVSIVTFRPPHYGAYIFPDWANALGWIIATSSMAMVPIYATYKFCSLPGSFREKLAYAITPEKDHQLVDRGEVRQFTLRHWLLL

For the compound `CNC(C)Cc1ccc2c(c1)OCO2` (racemic) [MDMA, 3,4-Methylenedioxymethamphetamine], the Ki is 5.11 µM in test [1], 2.62 µM in test [2] and 0.79 µM in test [5]. The “MBP level in basolateral and central nuclei of the amygdala vs vehicle” value in test [3] is “significant reduction in MBP”. Besides, the “times greater affinity for the 5HT2B receptor compared with methylone” value in test [4] is 7.5 times. Also, the reduction in immobility is 45% in test [6] (MDMA 5 mg/kg, Flinders Sensitive Line rats (Majumder 2011)); 45% in test [6] (MDMA 5 mg/kg, Sprague Dawley rats (Majumder 2011)); 93% in test [6] (MDMA 10 mg/kg, Flinders Sensitive Line rats (Majumder 2011)); 78% in test [6] (MDMA 10 mg/kg, Sprague Dawley rats (Majumder 2011)). In addition, the “reduced freezing (extinction recall) vs saline” value in test [7] was 35%.
